This test concerns the target T1, galectin-3 (Homo sapiens, UniProt P17931).
T1 construct: purchased IBL IBATGPO414
Briefly: Galectin-3 Activity - ELISA Assay (inhibition of binding of galectin-3 to a Galβ1-3GlcNAc carbohydrate structure). The conditions noted are these: competitive ELISA; galectin-3 binding to immobilized Galβ1-3GlcNAcβ1-3Galβ1-4GlcNAcβ-PAA-biotin polymer; A450 readout; read-out: IC50 (μM), Galectin-3 Antagonist Activity. The procedure: Galectin-3 antagonists were evaluated for their ability to inhibit binding of galectin-3 to a Galβ1-3GlcNAc carbohydrate structure. The detailed protocol was as follows. A 1 ug/mL suspension of a Galβ1-3GlcNAcβ1-3Galβ1-4GlcNAcβ-PAA-biotin polymer (Glycotech, catalog number 01-096) was prepared. A 100 uL aliquot of the polymer was added to the wells of a 96-well streptavidin-coated plate (R&D Systems, catalog number CP004). A 100 uL aliquot of 1× Tris Buffered Saline (TBS, Sigma, catalog number T5912-10X) was added to control wells. The polymer was allowed to bind to the streptavidin-coated wells for 1.5 hours at room temperature. The contents of the wells were discarded and 200 uL of 1×TBS containing 1% bovine serum albumin (BSA) was added to each well as a blocking reagent and the plate was kept at room temperature for 30 minutes. The wells were washed three times with 1×TBS containing 0.1% BSA. A serial dilution of test compounds was prepared in a separate V-bottom plate (Corning, catalog number 3897). A 75 uL aliquot of the highest concentration of the compound to be tested was added to the first well in a column of the V-bottom plate then 15 ul were serially transferred into 60 uL 1×TBS through the remaining wells in the column to generate a 1 to 5 serial dilution. A 60 uL aliquot of 2 ug/mL galectin-3 (IBL, catalog number IBATGPO414) was added to each well in the V-bottom plate. A 100 uL aliquot of the galectin-3/test compound mixture was transferred from the V-bottom plate into the assay plate containing the Galβ1-3GlcNAc polymer. Four sets of control wells in the assay plate were prepared in duplicate containing 1) both Galβ1-3GlcNAc polymer and galectin-3, 2) neither the polymer nor galectin-3, 3) galectin-3 only, no polymer, or 4) polymer only, no galectin-3. The plate was gently rocked for 1.5 hours at room temperature. The wells were washed four times with TBS/0.1% BSA. A 100 uL aliquot of anti-galectin-3 antibody conjugated to horse radish peroxidase (R&D Systems, from DGAL30 kit) was added to each well and the plate was kept at room temperature for 1 hour. The wells were washed four times with TBS/0.1% BSA. A 100 uL aliquot of TMB substrate solution was added to each well. The TMB substrate solution was prepared by making a 1:1 mixture of TMB Peroxidase Substrate (KPL, catalog number 5120-0048) and Peroxidase Substrate Solution B (KPL, catalog number 5120-0037). The plate was kept at room temperature for 10 to 20 minutes. The color development was stopped by adding 100 uL 10% phosphoric acid (RICCA Chemical Co., catalog number 5850-16). The absorbance at 450 nm (A450) was measured using a FlexStation 3 plate reader (Molecular Devices). Plots of A450 versus test compound concentration and IC50 determinations were made using GraphPad Prism 6.
T1 sequence (P17931 whole entry): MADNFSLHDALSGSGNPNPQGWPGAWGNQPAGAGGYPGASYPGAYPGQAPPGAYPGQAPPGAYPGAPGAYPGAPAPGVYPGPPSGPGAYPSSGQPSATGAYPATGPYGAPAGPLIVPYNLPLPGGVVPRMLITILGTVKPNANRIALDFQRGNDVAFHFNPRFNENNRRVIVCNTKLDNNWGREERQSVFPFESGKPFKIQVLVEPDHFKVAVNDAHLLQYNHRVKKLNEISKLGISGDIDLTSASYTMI
In the case of `[2H]C([2H])([2H])OC1C(n2cc(-c3cc(F)c(F)c(F)c3)nn2)[C@@H](O)C(CO)O[C@H]1[C@H](OCc1ccc(Br)cc1)C(=O)c1ccsc1` (stereo partly drawn) [Compound 80], the half-inhibitory concentration (IC50) was 0.44 µM.
For `COC1C(n2cc(-c3cc(F)c(F)c(F)c3)nn2)[C@@H](O)C(CO)O[C@H]1[C@H](OCc1ccc(Cl)cc1)C(=O)CC(C)C` (stereo partly drawn) [Compound 33] the value was 0.63 µM; for `[2H]C([2H])([2H])OC1C(n2cc(-c3cc(F)c(F)c(F)c3)nn2)[C@@H](O)C(CO)O[C@H]1[C@H](OCc1ccc(Br)cc1)C(=O)c1ccc(F)cc1` (stereo partly drawn) [Compound 79], 1.76 µM; for `[2H]C([2H])([2H])OC1C(n2cc(-c3cc(F)c(F)c(F)c3)nn2)[C@@H](O)C(CO)O[C@H]1[C@H](OCc1ccc(Br)cc1)C(=O)c1ccc(Cl)s1` (stereo partly drawn) [Compound 81], 3.21 µM.
For `[2H]C([2H])([2H])OC1C(n2cc(-c3cc(F)c(F)c(F)c3)nn2)[C@@H](O)C(CO)O[C@H]1[C@H](OCc1ccc(Cl)cc1)C(=O)C([2H])([2H])C([2H])([2H])[2H]` (stereo partly drawn) [Compound 76] the value was 0.66 µM.
For `[2H]C([2H])([2H])OC1C(n2cc(-c3cc(F)c(F)c(F)c3)nn2)[C@@H](O)C(CO)O[C@H]1[C@H](OCc1ccc(Cl)cc1)C(C)=O` (stereo partly drawn) [Compound 77] the value was 1.09 µM; for `CCC(=O)[C@@H](OCc1ccc(Cl)cc1)[C@@H]1OC(CO)[C@H](O)C(n2cc(-c3cc(F)c(F)c(F)c3)nn2)C1O` (stereo partly drawn) [Compound 74], 0.32 µM; for `[2H]C([2H])([2H])OC1C(n2cc(-c3cc(F)c(F)c(F)c3)nn2)[C@@H](O)C(CO)O[C@H]1[C@H](OCc1ccc(Br)cc1)C(=O)C([2H])([2H])C([2H])([2H])[2H]` (stereo partly drawn) [Compound 78], 0.5 µM.
Consider `CCC(=O)[C@@H](OCc1ccc(Cl)cc1)[C@@H]1OC(CO)[C@H](O)C(n2cc(-c3cc(F)c(F)c(F)c3)nn2)C1OC` (stereo partly drawn) [Compound 35], for which the IC50 is 0.75 µM.
Consider `COC1C(n2cc(-c3cc(F)c(F)c(F)c3)nn2)[C@@H](O)C(CO)O[C@H]1[C@H](OCc1ccc(Cl)cc1)C(C)=O` (stereo partly drawn) [Compound 32], for which the concentration for half-maximal inhibition (IC50) was found to be 0.82 µM.
For `COC1C(n2cc(-c3cc(F)c(F)c(F)c3)nn2)[C@@H](O)C(CO)O[C@H]1[C@H](OCc1ccc(Cl)cc1)C(=O)C1CC1` (stereo partly drawn) [Compound 75] the value was 1.18 µM; for `COC1C(n2cc(-c3cc(F)c(F)c(F)c3)nn2)[C@@H](O)C(CO)O[C@H]1[C@H](OCc1ccc(Cl)cc1)[C@@H](C)O` (stereo partly drawn) [Compound 41], 0.59 µM.
For `CC(=O)[C@@H](OCc1ccc(Br)cc1)[C@@H]1OC(CO)[C@H](O)C(n2cc(-c3cc(F)c(F)c(F)c3)nn2)C1O` (stereo partly drawn) [Compound 16] the value was 0.32 µM; for `COC1C(n2cc(-c3cc(F)c(F)c(F)c3)nn2)[C@@H](O)C(CO)O[C@H]1[C@H](OCc1ccc(C(F)(F)F)nc1)C(C)(C)O` (stereo partly drawn) [Compound 44], 57 µM.
For `COC1C(n2cc(-c3cc(F)c(F)c(F)c3)nn2)[C@@H](O)C(CO)O[C@H]1[C@H](OCc1ccc(Cl)cc1)C(=O)c1cccs1` (stereo partly drawn) [Compound 34] the value was 0.84 µM.

The values are drawn from patent US20230091472A1, “GALECTIN-3 INHIBITING C-GLYCOSIDE KETONES, ETHERS, AND ALCOHOLS” (GLYCOMIMETICS, INC., priority 2019, published 2023).
